Assay results as given in US20250042889A1, “3CLPRO PROTEASE INHIBITOR” (SHANGHAI QILU PHARMACEUTICAL RESEARCH AND DEVELOPMENT …, priority 2021, published 2025).
Where two headings read alike, the source gives them in different places.

Legend:
[1] = Pharmacokinetics in vivo experiment in cynomolgus macaques; details: male, cynomolgus monkey, 10 mg/kg; for AUC / Cmax / Tmax: in vivo, po; for half-life: plasma, cynomolgus macaque, oral administration
Description: • Basic information of animals • Species: cynomolgus macaque • Grade: conventional grade • Quantity: 18 cynomolgus macaques (male) were used in the drug administration experiment. • Weight: about 2.5 to 4.5 kg • Age: 3 to 5 years old • Source: Huazhen Animal Farm, Conghua City (General Partnership)
There are 9 male cynomolgus macaques, 3 cynomolgus macaques/group, 3 groups in total. The animals were fasted for 12 hours before administration, and the test solution was administered by gavage (10 mg/kg), and the administration volume was 2.5 mL/kg.
The blood was placed on wet ice, and centrifuged at 1700 g at 4° C. for 10 min within 1.5 h after collection. After centrifugation, the plasma was taken and added into a detection tube. Plasma samples can be stored in a refrigerator below-20° C. within 2 hours after centrifugation.
WinNonlin 8.1.0.3530 was used to calculate pharmacokinetic parameters.

in vivo = details: male, CD1, mouse
[2] = target: SARS-COV-2 3CLpro/Mpro protease (Severe acute respiratory syndrome coronavirus 2 (2019-nCoV) (SARS-CoV-2), UniProt P0DTD1); assay: Inhibitory effect on SARS-COV-2 3CLpro/Mpro protease by fluorescence resonance energy transfer; format: biochemical; details: activity intervals A-D
[3] = male, CD1, mouse, in vivo, po, 10 mg/kg
[4] = Pharmacokinetics in vivo experiment in CD1 mice; details: oral administration, 10 mg/kg
[5] = read-out: IC50 (nM), Inhibition on SARS-CoV-2 3CLpro/Mpro protease

| SMILES | AUC [1] [ng·h/mL] | Cmax [1] [ng/mL] | Tmax [1] [min] | half-life [1] [min] | AUC (in vivo; in vivo, iv, 1 mg/kg) [ng·h/mL] | Vd (in vivo; in vivo, iv, 1 mg/kg) [L/kg] | clearance (in vivo; in vivo, iv, 1 mg/kg) [mL/min/kg] | AUC (in vivo; in vivo, po, 10 mg/kg) [ng·h/mL] | Cmax (in vivo; in vivo, po, 10 mg/kg) [ng/mL] | half-life (in vivo; plasma, po, 10 mg/kg) [min] | IC50 [2, 5] [nM] | F [3] [%] | half-life (in vivo; plasma, iv, 1 mg/kg) [min] | half-life (in vivo; in vivo, iv, 1 mg/kg) [min] | half-life (in vivo; in vivo, po, 10 mg/kg) [min] | IC50 ([2]; IC50 (nM), Inhibition on SARS-CoV-2 3CLpro/Mpro protease) [nM] | F [4] [%] |
| --- | --- | --- | --- | --- | --- | --- | --- | --- | --- | --- | --- | --- | --- | --- | --- | --- | --- |
| CNc1cncc(C(=O)N2CCC[C@@H](Nc3c(C(=O)N4CCCCC4)cc(Br)cc3[N+](=O)[O-])C2)c1 [Example 31, (R)-(5-bromo-2-((1-(5-(methylamino)nicotinoyl)piperidin-3-yl)amino)-3-nitrophenyl)(piperidin-1-yl)methanone] | 454 | 232 | 79.8 | 29.4 | 88 | 1.56 | 11.6 | 369 | 401 | 15 | 10 to 50 | 42.1 | – | – | – | – | – |
| CNc1cncc(C(=O)N2CCC[C@@H](Nc3c(C(=O)N4C[C@@H](C)O[C@@H](C)C4)cc(Br)cc3[N+](=O)[O-])C2)c1 [Example 34, (5-Bromo-2-((R)-1-(5-(methylamino)nicotinoyl)piperidin-3-yl)amino)-3-nitrophenyl ((2R,6S)-2,6-dimethylmorpholinyl)methanone] | 4090 | 1960 | 79.8 | 35 | 107 | 1.02 | 9.4 | 702 | 1020 | 30 | 10 to 50 | 63 | 6.84 | – | – | – | – |
| CNc1cncc(C(=O)N2CCC[C@@H](Nc3c(C(=O)N4CCCC(F)(F)C4)cc(Br)cc3[N+](=O)[O-])C2)c1 [Example 36, (R)-(5-bromo-2-((1-(5-(methylamino)nicotinoyl)piperidin-3-yl)amino)-3-nitrophenyl)(3,3-difluoropiperidin-1-yl)methanone] | – | – | – | – | 92 | 1.7 | 11.2 | 273 | 365 | – | 10 to 50 | 29.7 | 8.16 | – | – | – | – |
| CNc1cncc(C(=O)N2CCC[C@@H](Nc3c(C(=O)N4CCOC(F)(F)C4)cc(Br)cc3[N+](=O)[O-])C2)c1 [Example 295] | – | – | – | – | 136 | 1.06 | 7.4 | 494 | 697 | 11.6 | 10 to 50 | 36.3 | 7.62 | – | – | – | – |
| CNc1cncc(C(=O)N2CCC[C@@H](Nc3c(C(=O)N4C5CCCC4COC5)cc(Br)cc3[N+](=O)[O-])C2)c1 [Example 312] | – | – | – | – | 95 | 1.38 | 10.6 | 605 | 594 | – | – | – | – | 7.68 | 46.1 | 10 to 50 | 65.5 |
| O=C(c1cc(Br)cc([N+](=O)[O-])c1N[C@@H]1CCCN(C(=O)[C@H]2CNCC(F)(F)C2)C1)N1CCCCC1 [Example 320] | – | – | – | – | 156 | 2.1 | 6.3 | 280 | 825 | 26.2 | 10 to 50 | 27.7 | 21.6 | – | – | – | – |
| CNc1cncc(C(=O)N2C[C@H](Nc3c(C(=O)N4C[C@@H](C)O[C@@H](C)C4)cc(Br)cc3[N+](=O)[O-])[C@@H](OC)C2)c1 [Example 321] | 994 | 699 | 70.2 | – | 153 | 7.1 | 6.2 | 1350 | 1640 | 144 | 10 to 50 | 84.7 | 96 | – | – | – | – |
| CNc1cncc(C(=O)N2C[C@H](Nc3c(C(=O)N4C[C@@H](C)O[C@@H](C)C4)cc(Br)cc3[N+](=O)[O-])C[C@@H](OC)C2)c1 [Example 422] | – | – | – | – | 102 | 1.32 | 9.82 | 628 | 725 | 19.2 | 50 to 100 | 62.6 | 6.36 | – | – | – | – |
